Test results from ChEMBL document CHEMBL1201862, “PubChem BioAssay data set” (2004).
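Assay format: 96-well plates, 48-hour exposure. At the GI50, growth is halved.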 Calls of active or inactive are those of the source. Rule as the data show it: active = GI50 up to about 1.1 µM and inactive = higher.

Experiments:
Test in all cases: NCI tumour cell line growth inhibition, 48 h
786-0 = tested on: 786-0
A498 = tested on: A498
A549 = tested on: A549
ACHN = tested on: ACHN
BT-549 = tested on: BT-549
CAKI-1 = tested on: CAKI-1
CCRF-CEM = tested on: CCRF-CEM
COLO 205 = tested on: COLO 205
DU-145 = tested on: DU-145
EKVX = tested on: EKVX
HCC 2998 = tested on: HCC 2998
HCT-116 = tested on: HCT-116
HCT-15 = tested on: HCT-15
HL-60 = tested on: HL-60
HOP-62 = tested on: HOP-62
HOP-92 = tested on: HOP-92
HT-29 = tested on: HT-29
Hs-578T = tested on: Hs-578T
IGROV-1 = tested on: IGROV-1
K562 = tested on: K562
KM12 = tested on: KM12
LOX IMVI = tested on: LOX IMVI
M14 = tested on: M14
MCF7 = tested on: MCF7
MDA-MB-231 = tested on: MDA-MB-231
MDA-MB-435 = tested on: MDA-MB-435
MDA-N = tested on: MDA-N
MOLT-4 = tested on: MOLT-4
Malme-3M = tested on: Malme-3M
NCI-H226 = tested on: NCI-H226
NCI-H23 = tested on: NCI-H23
NCI-H460 = tested on: NCI-H460
NCI-H522 = tested on: NCI-H522
NCI/ADR-RES = tested on: NCI/ADR-RES
OVCAR-3 = tested on: OVCAR-3
OVCAR-4 = tested on: OVCAR-4
OVCAR-5 = tested on: OVCAR-5
OVCAR-8 = tested on: OVCAR-8
PC-3 = tested on: PC-3
RPMI-8226 = tested on: RPMI-8226
RXF 393 = tested on: RXF 393
SF-268 = tested on: SF-268
SF-295 = tested on: SF-295
SF-539 = tested on: SF-539
SK-MEL-28 = tested on: SK-MEL-28
SK-MEL-5 = tested on: SK-MEL-5
SK-OV-3 = tested on: SK-OV-3
SN12C = tested on: SN12C
SNB-19 = tested on: SNB-19
SNB-75 = tested on: SNB-75
SR = tested on: SR
SW-620 = tested on: SW-620
T47D = tested on: T47D
TK-10 = tested on: TK-10
U-251 = tested on: U-251
UACC-257 = tested on: UACC-257
UACC-62 = tested on: UACC-62
UO-31 = tested on: UO-31

## COC1/C=C/C(C)C(OC)CC(O)/C=C/C(C)C(C(C)C(OC)C(C)CCC(=O)C(C)C(C/C=C/N(C)C=O)OC)OC(=O)/C=C/C=C(\C)CC(OC)CC2=CC(=O)O[C@@H](C(C)C(OC)C1)[C@H]2O (stereo partly drawn)
786-0
  GI50: 97.7 nM (active)
A498
  GI50: 56 nM (active)
A549
  GI50: 119 nM (active)
ACHN
  GI50: 91 nM (active)
BT-549
  GI50: 142 nM (active)
CAKI-1
  GI50: 33.2 nM (active)
CCRF-CEM
  GI50: 621 nM (active)
COLO 205
  GI50: 30.1 nM (active)
DU-145
  GI50: 544 nM (active)
EKVX
  GI50: 386 nM (active)
HCC 2998
  GI50: 175 nM (active)
HCT-116
  GI50: 18.8 nM (active)
HCT-15
  GI50: 55.6 nM
HL-60
  GI50: 64 nM (active)
HOP-62
  GI50: 53.7 nM (active)
HOP-92
  GI50: 63.4 nM (active)
HT-29
  GI50: 84.5 nM (active)
Hs-578T
  GI50: 80.9 nM (active)
IGROV-1
  GI50: 70.8 nM (active)
K562
  GI50: 17100 nM (inactive)
KM12
  GI50: 75.3 nM (active)
LOX IMVI
  GI50: 22.3 nM (active)
M14
  GI50: 56 nM (active)
MCF7
  GI50: 98.2 nM (active)
MDA-MB-231
  GI50: 39.5 nM (active)
MDA-MB-435
  GI50: 182 nM (active)
MDA-N
  GI50: 95.1 nM (active)
MOLT-4
  GI50: 214 nM (active)
Malme-3M
  GI50: 69 nM (active)
NCI-H226
  GI50: 122 nM (active)
NCI-H23
  GI50: 260 nM (active)
NCI-H460
  GI50: 39.5 nM (active)
NCI-H522
  GI50: 146 nM (active)
NCI/ADR-RES
  GI50: 195 nM (active)
OVCAR-3
  GI50: 49 nM (active)
OVCAR-4
  GI50: 120 nM (active)
OVCAR-5
  GI50: 177 nM (active)
OVCAR-8
  GI50: 160 nM (active)
PC-3
  GI50: 87.3 nM (active)
RPMI-8226
  GI50: 53.6 nM (active)
RXF 393
  GI50: 73.5 nM (active)
SF-268
  GI50: 153 nM (active)
SF-295
  GI50: 110 nM (active)
SF-539
  GI50: 114 nM (active)
SK-MEL-28
  GI50: 76.7 nM (active)
SK-MEL-5
  GI50: 125 nM (active)
SK-OV-3
  GI50: 151 nM (active)
SN12C
  GI50: 379 nM (active)
SNB-19
  GI50: 96.2 nM (active)
SNB-75
  GI50: 69.7 nM (active)
SR
  GI50: 92.9 nM (active)
SW-620
  GI50: 66.4 nM (active)
T47D
  GI50: 912 nM (active)
TK-10
  GI50: 290 nM (active)
U-251
  GI50: 70.6 nM (active)
UACC-257
  GI50: 110 nM (active)
UACC-62
  GI50: 148 nM (active)
UO-31
  GI50: 99.8 nM (active)
